SMILES strings stand for the structures. Where two headings read alike, the source gives them in different places.

For orientation: inhibition means the relative decrease from the control value, in per cent. One may read the melting point as the temperature of the solid-liquid transition. By LC50 is commonly meant the concentration that kills 50% of the test population. The term GI50 denotes the concentration giving 50% growth inhibition. For orientation: IC50 means the concentration that gives 50% inhibition.

The test system of one series is CAKI-1. As to the kind of experiment: NCI-60 SRB screen. Format: cell-based. Conditions: Homo sapiens; CAKI-1, 10^–5 Molar; read-out: Percent growth inhibition. In a few lines: (§1)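 Compounds were evaluated at one concentration (10^−5 M) against the cell lines over 48 h. Cell mass was measured by sulforhodamine B staining after trichloroacetic acid fixation, with growth expressed relative to time-zero and control cultures.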

The test system of series [1] is 60 human cancer cell lines. As to the kind of experiment: NCI-60 SRB screen, whole panel. As to conditions: for activity at 10 µM / LC50 / GI50 / inhibition at 10 µM: Homo sapiens; for activity at 10 µM: 48 h, One Dose Mean Graph, Conc 1.00E-5 Molar, read-out: Mean Growth Percent; for LC50 / Log10 TGI _MID: mean over panel, Units Molar; for LC50: read-out: Log10 LC50 _MID (converted); for GI50: mean over the cell line panel (_MID), Molar, read-out: Mean Log10 GI50 (converted). In kind it is cell-based.

In a further series the test system is MOLT-4. As to the kind of experiment: NCI-60 SRB screen. As to conditions: Homo sapiens; MOLT-4, 10^–5 Molar; read-out: Percent growth inhibition. Format: cell-based.
A further series deals with RPMI-8226. As to the kind of experiment: NCI-60 SRB screen. In kind it is cell-based. As to conditions: Homo sapiens; RPMI-8226, 10^–5 Molar; read-out: Percent growth inhibition.
Another series relates to COLO 205. As to the kind of experiment: NCI-60 SRB screen. Format: cell-based. As to conditions: Homo sapiens, 48 h; COLO 205, 10^–5 Molar; read-out: Percent growth inhibition.
A further series relates to HT29. As to the kind of experiment: NCI-60 SRB screen. Format: cell-based. Conditions: Homo sapiens, HT-29; HT29, 10^–5 Molar; read-out: Percent growth inhibition.
Another series concerns OVCAR-3. As to the kind of experiment: NCI-60 SRB screen. Format: cell-based. As to conditions: Homo sapiens; OVCAR-3, 10^–5 Molar; read-out: Percent growth inhibition.
For another series, the system named is TK-10. As to the kind of experiment: NCI-60 SRB screen. In kind it is cell-based. Conditions: Homo sapiens; TK-10, 10^–5 Molar; read-out: Percent growth inhibition.
A further series deals with DU-145. As to the kind of experiment: NCI-60 SRB screen. Format: cell-based. Conditions: Homo sapiens; DU-145, 10^–5 Molar; read-out: Percent growth inhibition.
For the next series, the target named is T1, topoisomerase IIα (Homo sapiens, UniProt P11388).
T1 construct: purchased MBS2885049
As to the kind of experiment: Topoisomerase ELISA kit inhibitory assay. In kind it is biochemical. As to conditions: four concentrations. The procedure:
Four concentrations were used and IC50 was calculated.
Compound 3a,b,c,e were evaluated for topoisomerase IIα inhibitory activity utilizing the human DNA topoisomerase ELISA kit (MBS2885049) and following the provided procedure: • Standards and the tested compound were dissolved in sample diluent and tenfold serial dilution was achieved. • Biotin-conjugated antibody and avidin conjugated Horseradish Peroxidase (HRP-avidin) were diluted to tenfolds. • 100 µL of each concentration of standard or test compounds were added to each well and incubated at 37 °C for 1 h. • Removal of the liquid in each well was done. • To each well 100 µL of Biotin-conjugated antibody solution was added followed by incubation for 1 h at 37 °C. • The microtiter plate was allowed to aspirate and washed 3 times. • 100 µL of avidin conjugated Horseradish Peroxidase (HRP-avidin) solution was added to each well and incubatation for 1 h at 37 °C was achieved. • The plate was aspirated and washed 5 times. • Addition of 90 µL of 3,3′,5,5′-tetramethylbenzidine (TMB) substrate to each well followed by plate incubated for 30 min at 37 °C and protection from light was done. • 50 µL stop solution was added.
A general note: An ELISA detects its analyte on a solid surface through an enzyme-linked reagent.

The next series relates to HL-60(TB). As to the kind of experiment: NCI-60 SRB screen. Format: cell-based. As to conditions: Homo sapiens, 10^–5 Molar, read-out: Percent growth inhibition.
In another series the test system is SK-MEL-2. As to the kind of experiment: NCI-60 SRB screen. Format: cell-based. Conditions: Homo sapiens; SK-MEL-2, 10^–5 Molar; read-out: Percent growth inhibition. In a few lines: as §1
The subject of another series is UACC-257. As to the kind of experiment: NCI-60 SRB screen. Format: cell-based. Conditions: Homo sapiens; UACC-257, 10^–5 Molar; read-out: Percent growth inhibition.
[2] abbreviates: single dose 10^–5 M, 60 cell lines, read-out: mean percent growth inhibition.

T1 sequence (P11388 whole entry): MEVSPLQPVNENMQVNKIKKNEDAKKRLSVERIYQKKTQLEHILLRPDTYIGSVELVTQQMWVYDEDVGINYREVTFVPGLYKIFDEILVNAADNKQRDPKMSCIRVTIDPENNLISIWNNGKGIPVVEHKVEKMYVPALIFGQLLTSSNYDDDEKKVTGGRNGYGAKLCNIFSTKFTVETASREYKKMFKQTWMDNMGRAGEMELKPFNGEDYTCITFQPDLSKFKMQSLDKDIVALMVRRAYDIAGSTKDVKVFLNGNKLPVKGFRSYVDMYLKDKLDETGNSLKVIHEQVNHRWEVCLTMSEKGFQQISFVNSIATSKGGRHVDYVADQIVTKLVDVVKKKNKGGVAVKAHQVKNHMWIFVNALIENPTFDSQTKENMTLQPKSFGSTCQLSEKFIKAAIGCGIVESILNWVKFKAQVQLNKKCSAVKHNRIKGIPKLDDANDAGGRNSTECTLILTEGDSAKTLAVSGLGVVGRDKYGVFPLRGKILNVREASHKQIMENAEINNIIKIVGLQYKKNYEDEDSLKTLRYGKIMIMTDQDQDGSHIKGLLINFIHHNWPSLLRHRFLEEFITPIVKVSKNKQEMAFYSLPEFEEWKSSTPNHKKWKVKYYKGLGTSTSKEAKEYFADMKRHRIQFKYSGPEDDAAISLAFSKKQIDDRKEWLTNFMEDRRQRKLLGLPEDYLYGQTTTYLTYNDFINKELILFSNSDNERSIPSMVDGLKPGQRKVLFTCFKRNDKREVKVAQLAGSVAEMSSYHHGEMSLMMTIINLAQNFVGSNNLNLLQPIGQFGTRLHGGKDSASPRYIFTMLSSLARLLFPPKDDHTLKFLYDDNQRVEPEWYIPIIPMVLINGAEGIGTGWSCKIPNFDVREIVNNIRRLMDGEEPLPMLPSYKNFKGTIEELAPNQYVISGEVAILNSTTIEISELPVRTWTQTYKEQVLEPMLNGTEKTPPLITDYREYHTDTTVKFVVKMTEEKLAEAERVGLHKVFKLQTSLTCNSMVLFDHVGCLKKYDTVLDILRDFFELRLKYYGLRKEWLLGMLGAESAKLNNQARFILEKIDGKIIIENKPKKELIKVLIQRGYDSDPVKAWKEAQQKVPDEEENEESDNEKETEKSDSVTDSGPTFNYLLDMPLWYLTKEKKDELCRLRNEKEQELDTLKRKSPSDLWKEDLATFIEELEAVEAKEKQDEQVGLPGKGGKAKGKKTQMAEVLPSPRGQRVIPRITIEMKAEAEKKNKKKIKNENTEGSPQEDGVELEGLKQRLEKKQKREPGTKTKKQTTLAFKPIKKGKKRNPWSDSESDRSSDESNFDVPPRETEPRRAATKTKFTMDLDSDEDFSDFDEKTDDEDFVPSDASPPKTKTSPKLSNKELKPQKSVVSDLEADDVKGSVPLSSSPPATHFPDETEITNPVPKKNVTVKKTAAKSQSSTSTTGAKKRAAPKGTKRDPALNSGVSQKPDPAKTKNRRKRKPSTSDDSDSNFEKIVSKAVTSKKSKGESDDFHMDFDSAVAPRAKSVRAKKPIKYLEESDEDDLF

Turning to `CCn1cc(C(=O)O)c(=O)c2cc(F)c(N3CCN(CC(=O)Nc4ccccc4)C(C)C3)c(F)c21` (stereo not drawn) [Compound 5a, 1-Ethyl-6,8-difluoro-7-(3-methyl-4-(2-oxo-2-(phenylamino)ethyl)piperazin-1-yl)-4-oxo-1,4-dihydroquinoline-3-carboxylic acid], the melting point is 248 to 250 °C. Further, the inhibition at 10 µM in the series on CAKI-1 was 13%. In addition, the activity at 10 µM in [1] was 97.2%.

Turning to `CCn1cc(C(=O)NN=Cc2cccs2)c(=O)c2cc(F)c(N3CCNC(C)C3)c(F)c21` (stereo not drawn) [Compound 3e, 1-Ethyl-6,8-difluoro-7-(3-methylpiperazin-1-yl)-4-oxo-N'-(thiophen-2-ylmethylene)-1,4-dihydroquinoline-3-carbohydrazide], the inhibition at 10 µM in the series on MOLT-4 amounted to 24.9%; in the series on RPMI-8226, 137%; in the series with CAKI-1, 53.5%; in the series with COLO 205 it was 142%; in the series with HT29 it was 177%; in the series on OVCAR-3, 31.3%. The values for the inhibition at 10 µM (with TK-10; in the series on DU-145; in series [1] (setting [2])) were 16.1%, 51.7% and above 47%, respectively. For the same compound, the activity at 10 µM in [1] was determined as 52.6%. For the same compound, the LC50 in [1] was 7240 nM. Also, the GI50 in [1] is 1820 nM. In series [1], the “Log10 TGI _MID” value is reported as -5.44. Moreover, inhibition against topoisomerase IIα was half-maximal at 980 nM (IC50).

`CCn1cc(C(=O)O)c(=O)c2cc(F)c(N3CCN(C(=O)c4ccc(Br)cc4)C(C)C3)c(F)c21` (stereo not drawn) [Compound 7b, 7-(4-(4-Bromobenzoyl)-3-methylpiperazin-1-yl)-1-ethyl-6,8-difluoro-4-oxo-1,4-dihydroquinoline-3-carboxylic acid] returned a melting point of 271 to 273 °C. Also, the inhibition at 10 µM in the series on CAKI-1 stood at 13.6%. The activity at 10 µM in series [1] was 98.8%.

With `CCn1cc(C(=O)O)c(=O)c2cc(F)c(N3CCN(C(=O)c4ccc([N+](=O)[O-])cc4)C(C)C3)c(F)c21` (stereo not drawn) [Compound 7d, 1-Ethyl-6,8-difluoro-7-(3-methyl-4-(4-nitrobenzoyl)piperazin-1-yl)-4-oxo-1,4-dihydroquinoline-3-carboxylic acid], the melting point was 215 to 217 °C. Besides, the inhibition at 10 µM in the series on HL-60(TB) came out at 24.7%. Moreover, in the series with CAKI-1, the inhibition at 10 µM was 17.6%. For the same compound, the activity at 10 µM in series [1] came to 97.3%. For the same compound, the inhibition at 10 µM in series [1] (prostate and renal cancer cell lines, 10^−5 M, read-out: percent inhibition) lay within 12 to 27.2%.

Compound `CCn1cc(C(=O)O)c(=O)c2cc(F)c(N3CCN(CC(=O)Nc4ccc(Cl)cc4)C(C)C3)c(F)c21` (stereo not drawn) [Compound 5b, 7-(4-(2-((4-Chlorophenyl)amino)-2-oxoethyl)-3-methylpiperazin-1-yl)-1-ethyl-6,8-difluoro-4-oxo-1,4-dihydroquinoline-3-carboxylic acid] returned a melting point of 218 to 220 °C. Moreover, in the series on MOLT-4, the inhibition at 10 µM stood at 1%. For the same compound, the inhibition at 10 µM in the series on CAKI-1 was determined as 13.7%. Moreover, the activity at 10 µM in series [1] was determined as 94.6%.

As for `CCn1cc(C(=O)NN=Cc2cccnc2)c(=O)c2cc(F)c(N3CCNC(C)C3)c(F)c21` (stereo not drawn) [Compound 3d, 1-Ethyl-6,8-difluoro-7-(3-methylpiperazin-1-yl)-4-oxo-N'-(pyridin-3-ylmethylene)-1,4-dihydroquinoline-3-carbohydrazide], the melting point was in the range of 241 to 243 °C. Also, in the series on HL-60(TB), the inhibition at 10 µM came out at 30.5%. The inhibition at 10 µM in the series on MOLT-4 was 65.6%. The inhibition at 10 µM in the series on RPMI-8226 stood at 13.4%. Moreover, the inhibition at 10 µM in the series on CAKI-1 worked out at 67.8%. In addition, the inhibition at 10 µM in the series on SK-MEL-2 turned out to be 44.1%. Moreover, the inhibition at 10 µM with COLO 205 amounted to 46.8%. Further, the inhibition at 10 µM in the series on HT29 was found to be 56.3%. For the same compound, the inhibition at 10 µM in the series with UACC-257 was 1.56%. Besides, the inhibition at 10 µM in the series with OVCAR-3 worked out at 59.8%. The inhibition at 10 µM with TK-10 stood at 29%. Also, the inhibition at 10 µM in the series with DU-145 worked out at 57.5%. In addition, the activity at 10 µM in series [1] was determined as 53.2%.

As for `CCn1cc(C(=O)NN=Cc2ccccc2)c(=O)c2cc(F)c(N3CCNC(C)C3)c(F)c21` (stereo not drawn) [Compound 3a, N'-Benzylidene-1-ethyl-6,8-difluoro-7-(3-methylpiperazin-1-yl)-4-oxo-1,4-dihydroquinoline-3-carbohydrazide], the inhibition at 10 µM with HL-60(TB) amounted to 81.9%; in the series with MOLT-4, 125%; in the series on RPMI-8226, 142%; in the series with CAKI-1, 54.2%; in the series on SK-MEL-2, 6.57%; in the series with COLO 205, 174%. In addition, the inhibition at 10 µM was 192% with HT29; 60.4% with UACC-257; 175% in the series with OVCAR-3; 17.3% with TK-10; 188% with DU-145; above 47% in series [1] (setting [2]). For the same compound, the activity at 10 µM in [1] was -2.19%. Besides, in series [1], the LC50 was 5890 nM. Further, in [1], the 50% growth inhibitory concentration (GI50) was 1700 nM. Also, the “Log10 TGI _MID” value in series [1] is -5.49. The half-inhibitory concentration (IC50) on topoisomerase IIα came to 1740 nM.

Take `CCn1cc(C(=O)NN=Cc2ccc(Br)cc2)c(=O)c2cc(F)c(N3CCNC(C)C3)c(F)c21` (stereo not drawn) [Compound 3c, N'-(4-Bromobenzylidene)-1-ethyl-6,8-difluoro-7-(3-methylpiperazin-1-yl)-4-oxo-1,4-dihydroquinoline-3-carbohydrazide]: the inhibition at 10 µM in the series with HL-60(TB) worked out at 51.3%; in the series with MOLT-4, 78%; in the series on RPMI-8226, 115%; in the series with CAKI-1, 31.5%; in the series with SK-MEL-2, 2.32%; in the series on COLO 205, 67.9%. Further, the inhibition at 10 µM in the series on HT29 was 132%; in the series on OVCAR-3 it was 47.1%; in the series with TK-10, 0.41%; in the series with DU-145 it was 68.6%; in [1] (setting [2]), above 47%. Besides, the activity at 10 µM in series [1] stood at 51.9%. Besides, in series [1], the median lethal concentration (LC50) is 7240 nM. For the same compound, the GI50 in [1] was 1740 nM. For the same compound, in [1], the “Log10 TGI _MID” value is given as -5.46. Besides, 1680 nM corresponded to half-maximal inhibition against topoisomerase IIα (IC50).

The compound `CCn1cc(C(=O)O)c(=O)c2cc(F)c(N3CCN(C(=O)c4ccc(Cl)cc4)C(C)C3)c(F)c21` (stereo not drawn) [Compound 7c, 7-(4-(4-Chlorobenzoyl)-3-methylpiperazin-1-yl)-1-ethyl-6,8-difluoro-4-oxo-1,4-dihydroquinoline-3-carboxylic acid] yielded a melting point of 282 to 284 °C. Further, the inhibition at 10 µM in the series with CAKI-1 is 14.9%. In addition, the activity at 10 µM in [1] was 97.7%.

Take `CCn1cc(C(=O)O)c(=O)c2cc(F)c(N3CCN(C(=O)c4ccccc4)C(C)C3)c(F)c21` (stereo not drawn) [Compound 7a, 7-(4-Benzoyl-3-methylpiperazin-1-yl)-1-ethyl-6,8-difluoro-4-oxo-1,4-dihydroquinoline-3-carboxylic acid]: the melting point lay within 290 to 292 °C. The inhibition at 10 µM in the series on CAKI-1 turned out to be 15.4%. Moreover, in the series with SK-MEL-2, the inhibition at 10 µM was 0.16%. In addition, the inhibition at 10 µM in the series on OVCAR-3 amounted to 3.69%. For the same compound, the inhibition at 10 µM in the series with TK-10 is 13%. The activity at 10 µM in series [1] turned out to be 93.5%.

On to `CCn1cc(C(=O)NN=Cc2cccc(F)c2)c(=O)c2cc(F)c(N3CCNC(C)C3)c(F)c21` (stereo not drawn) [Compound 3b, 1-Ethyl-6,8-difluoro-N′-(3-fluorobenzylidene)-7-(3-methylpiperazin-1-yl)-4-oxo-1,4-dihydroquinoline-3-carbohydrazide], for which the inhibition at 10 µM amounted to 34.5% in the series with HL-60(TB); 126% in the series with MOLT-4; 142% in the series on RPMI-8226; 33.3% with CAKI-1; 82.5% in the series on COLO 205; 187% with HT29. In addition, the inhibition at 10 µM in the series with UACC-257 was 11%; in the series on OVCAR-3, 183%; in the series with DU-145, 188%; in series [1] (setting [2]), above 47%. Besides, the activity at 10 µM in series [1] came to 11.2%. For the same compound, in [1], the LC50 was 6610 nM. In addition, the concentration for 50% growth inhibition (GI50) in series [1] was 1700 nM. In addition, the “Log10 TGI _MID” value in series [1] is reported as -5.47. The same compound displayed an IC50 on topoisomerase IIα of 2410 nM.
